# Source: patent US11173177B2, “Compounds for treatment of lipoprotein metabolism disorders” (Aarhus Universitet, priority 2016, dated 2021)
# What was measured:
# LDLR in HepG2 cells = experiment: LDLR levels in HepG2 cells by Western blotting and densitometry; assay type: cell-based, human; settings: 0-200 μg/ml, 24 h
# Protocol: In the heparin mimetic class of modified polysaccharides compounds dextran sulfate (FIG. 9 A-B) and pentosan (FIG. 9 D-E) were tested in a HepG2 based in vitro cell assay. After overnight incubation LDLR levels were evaluated by Western blotting showing a concentration dependent increase of LDLR upon treatment with dextran sulfate (0-200 μg/ml) with up to 3-fold up regulation of LDLR.
# Control cells were incubated without additives (negative control) or 500 μg/ml heparin (positive control). LDLR levels were calculated with respect to the level found in lysate of HepG2 cells incubated without additives.
# HepG2 cells were incubated with 0-200 μg/ml of heterogeneously sulfated hexamer or 18-mer oligosaccharides containing on average 1,3 sulfates per disaccharide. After over night incubation cells were harvested and the cellular level of LDLR was analyzed by Western blotting (FIG. 17 A) and quantified by densitometry (FIG. 17 B).
# liver LDLR = experiment: Liver LDLR levels in mice after intravenous PCSK9 injection (Western blot); assay type: in vivo; settings: inhibitor i.v. 60 min prior PCSK9 (10 μg); compound (X) 0.13 mg/kg, Evolocumab 8 mg/kg; PCSK9 without inhibitor: 50% decrease
# Protocol: To test the effect of enzymatic removal of heparan sulfate GAGs on PCSK9 activity in vivo 10-12 week-old male BALB6/cJRj mice were infused with heparinase I (30 U) administered through a tail vein catheter 5 min prior injection of PCSK9 (10 μg). In control mice the heparinase injection and/or the PCSK9 injection were replaced with an injection of 0.9% saline. During heparinase infusion, mice were lightly anaesthetized with isoflurane continuously administered through a mask.
# Mice (BALB6/cJRj) were subjected to a single intravenous administration (tail vein) of 10 μg human recombinant PCSK9 alone or in combination with heparin (50 U). One hour post injection mice were sacrificed and liver tissues were collected.
# Mice (BALB6/cJRj) were subjected to a single intravenous (tail vein) administration of 3.2 μg compound (X) 60 minutes prior injection with PCSK9 (10 μg). PCSK9 induced degradation of liver LDLR was assessed 60 min post PCSK9 injection by Western blotting and quantified by densitometry (FIG. 16 C). Control mice were injected with NaCl or control inhibitor Evolocumab (200 μg), commercially available PCSK9 inhibitory monoclonal antibody (Amgen). LDLR levels were calculated with respect to LDLR level in mice injected with NaCl alone.
# PCSK9 [1] = experiment: BIACORE interference assay, PCSK9 binding to heparin-albumin sensor chip; parameters: species or system human; settings: 100 nM PCSK9 preincubated with 0 nM-10 μM compound; read-out: estimated IC50, inhibition of PCSK9 binding to heparin-albumin sensor chip
# Protocol: BIACORE analysis using sensor chips coupled with either albumin (Sigma A4503) or heparin-albumin (Sigma H0403) were used to evaluate the interaction between PCSK9 and heparin. […] An interference assay using BIACORE analysis was implemented to assess the binding between compound (X) and PCSK9. Solutions of 100 nM PCSK9 was incubated with increasing concentrations of compound (X) (0 nM, 10 nM, 100 nM, 1 μM and 10 μM), the solutions were then infused over the sensor chip coupled with heparin-albumin.
# PCSK9 [2] = experiment: Heparin-sepharose binding assay (free PCSK9 by ELISA); parameters: species or system human; settings: 500-200 μg/ml, PCSK9 1 μg/ml, over night 4° C.
# Protocol: Compound (X) inhibition of PCSK9 binding to Heparin/Heparan sulfate was tested in a Heparin-sepharose binding assay. Heparin-sepharose beads (2 μl) were incubated with PCSK9 (1 μg/ml) with increasing concentrations of compound (X) (0-500 μg/ml) in a total volume of 150 μl 10 mM NaH2PO4. After over night rotation at 4° C., beads were pelleted and the concentration of non-precipitated PCSK9 (free PCSK9) in supernatant was evaluated by ELISA. The concentration of free PCSK9 in each sample was normalised to the PCSK9 level in a sample without Heparin-sepharose beads (input control). As positive control was included a sample with soluble heparin (5 mg/ml) (FIG. 16 A).
# Sucrose octasulfate (FIG. 21A) inhibition of PCSK9 binding to Heparin/Heparan sulfate was tested in a Heparin-sepharose binding assay. Heparin-sepharose beads (2 μl) were incubated with PCSK9 (1 μg/ml) and increasing concentrations of sucrose octasulfate (0-500 μg/ml) in a total volume of 150 μl 10 mM NaH2PO4. After over night rotation at 4° C., beads were pelleted and the concentration of non-precipitated PCSK9 (free PCSK9) in supernatant was evaluated by ELISA). Percent free PCSK9 was calculated with respect to the PCSK9 concentration in a sample without Heparin-sepharose beads (input control) (FIG. 21B).
compound,measurement,setting,value
"CC(C)CCC[C@@H](C)[C@H]1CC[C@H]2[C@@H]3CC[C@H]4C[C@@H](O[C@@H]5O[C@H](COS(=O)(=O)[O-])[C@@H](O[C@H]6O[C@H](COS(=O)(=O)[O-])[C@@H](O[C@H]7O[C@H](COS(=O)(=O)[O-])[C@@H](O[C@H]8O[C@H](COS(=O)(=O)[O-])[C@@H](OS(=O)(=O)[O-])[C@H](OS(=O)(=O)[O-])[C@H]8OS(=O)(=O)[O-])[C@H](OS(=O)(=O)[O-])[C@H]7OS(=O)(=O)[O-])[C@H](OS(=O)(=O)[O-])[C@H]6OS(=O)(=O)[O-])[C@H](OS(=O)(=O)[O-])[C@H]5OS(=O)(=O)[O-])CC[C@]4(C)[C@H]3CC[C@]12C.[Na+].[Na+].[Na+].[Na+].[Na+].[Na+].[Na+].[Na+].[Na+].[Na+].[Na+].[Na+].[Na+] [compound (X), 3β-cholestanyl 2,3,4,6-tetra-O-sulfo-α-D-glucopyranosyl-(1→4)-2,3,6-tri-O-sulfo-α-D-glucopyranosyl-(1→4)-2,3,6-tri-O-sulfo-α-Dglucopyranosyl-(1→4)-2,3,6-tri-O-sulfo-β-D-glucopyranoside tridecasodium salt]",LDLR levels with respect to cells incubated without additives,LDLR in HepG2 cells,up to 12 times
same,"LDLR levels, concentration dependence",LDLR in HepG2 cells,concentration dependent increased levels of LDLR
same,decrease of liver LDLR level after PCSK9 injection,liver LDLR,no decrease was observed
same,IC50,PCSK9 [1],~50 nM
same,inhibition of PCSK9 interaction with Heparin-sepharose,PCSK9 [2],completely inhibited
